pIC50: −log10 of the molar value.
target: T1, Alkaline phosphatase, tissue-nonspecific isozyme (Homo sapiens, UniProt P05186); test: inhibition of tissue-nonspecific alkaline phosphatase – biochemical, luminescent (AID 518)
T1 sequence (P05186 whole entry): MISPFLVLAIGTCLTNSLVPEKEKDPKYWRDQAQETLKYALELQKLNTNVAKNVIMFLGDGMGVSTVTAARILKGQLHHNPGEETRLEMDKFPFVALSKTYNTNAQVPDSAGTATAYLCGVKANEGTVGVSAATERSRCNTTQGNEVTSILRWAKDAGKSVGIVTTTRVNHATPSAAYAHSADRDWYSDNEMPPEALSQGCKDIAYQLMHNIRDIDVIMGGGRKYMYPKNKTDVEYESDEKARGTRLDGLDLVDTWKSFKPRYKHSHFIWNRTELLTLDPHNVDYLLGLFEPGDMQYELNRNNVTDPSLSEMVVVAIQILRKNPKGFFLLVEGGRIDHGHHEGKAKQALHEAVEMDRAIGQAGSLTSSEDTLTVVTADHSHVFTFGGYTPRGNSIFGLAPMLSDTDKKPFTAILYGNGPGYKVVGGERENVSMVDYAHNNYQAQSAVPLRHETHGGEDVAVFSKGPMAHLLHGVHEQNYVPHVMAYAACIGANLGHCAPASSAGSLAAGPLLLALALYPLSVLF

**Q.** How did the pIC50 turn out when `CCN(CC)S(=O)(=O)c1ccc2c(c1)c(=O)c(C(=O)N1CCOCC1)cn2C` [MLS000092367] was run?
**A.** < 4.00

**Q.** `O=C(C1CCN(S(=O)(=O)N2CCC3(CC2)OCCO3)CC1)N1CCN(Cc2ccccc2)CC1` [(4-benzylpiperazin-1-yl)-[1-(1,4-dioxa-8-azaspiro[4.5]decan-8-ylsulfonyl)piperidin-4-yl]methanone] was tested. Which pIC50 did it give?
**A.** < 4.00

**Q.** `COc1ccc2c(c1)CCc1c-2n[nH]c1C(=O)O` [7-methoxy-4,5-dihydro-2H-benzo[g]indazole-3-carboxylic acid] was tested. Which pIC50 did it give?
**A.** 5.58

**Q.** How did the pIC50 turn out when `Cc1ccsc1C=c1sc2ncnn2c1=O` [5-[(3-methyl-2-thienyl)methylene][1,3]thiazolo[3,2-b][1,2,4]triazol-6(5H)-one] was run?
**A.** 4.93

**Q.** With `O=C(Cc1ccc(-n2cccc2)cc1)N1CCN(c2ccccc2F)CC1` [1-(2-fluorophenyl)-4-{[4-(1H-pyrrol-1-yl)phenyl]acetyl}piperazine] as the compound, how does the pIC50 read?
**A.** < 4.00

**Q.** `COCc1n[nH]c2c1C(c1cc(OC)c(O)c(OC)c1)C(C#N)C(=N)O2` (configuration not stated) [6-azanyl-4-(3,5-dimethoxy-4-oxidanyl-phenyl)-3-(methoxymethyl)-2,4-dihydropyrano[2,3-c]pyrazole-5-carbonitrile] was tested. Which pIC50 did it give?
**A.** 5.28

**Q.** How did the pIC50 turn out when `O=c1c(=Cc2ccco2)sc2nc(-c3ccccc3Br)nn12` [2-(2-bromophenyl)-5-(2-furanylmethylidene)-6-thiazolo[3,2-b][1,2,4]triazolone] was run?
**A.** < 4.00

**Q.** With `O=C(Nc1nnc(C2CCCCC2)[nH]1)C1CCCCC1` as the compound, how does the pIC50 read?
**A.** < 4.00

**Q.** `Cc1ccc2c(c1)-c1c(cnn1CC(=O)N1CCCN(Cc3ccccc3F)C1)CO2` [1-[3-(2-fluorobenzyl)hexahydropyrimidin-1-yl]-2-(8-methyl-4H-chromeno[4,3-c]pyrazol-1-yl)ethanone] was tested. Which pIC50 did it give?
**A.** < 4.00

**Q.** `CCCc1nc2c3cnn(-c4cccc(Cl)c4)c3ncn2n1` [MLS000083263] was tested. Which pIC50 did it give?
**A.** < 4.00

**Q.** How did the pIC50 turn out when `Cn1c(NC(=O)CC(C)(C)C)cc(=O)n(C)c1=O` [MLS000103608] was run?
**A.** < 4.00

**Q.** How did the pIC50 turn out when `COc1cc(CSc2nnc[nH]2)c(OC)cc1CSc1nnc[nH]1` [5-[[2,5-dimethoxy-4-[(1H-1,2,4-triazol-5-ylthio)methyl]phenyl]methylthio]-1H-1,2,4-triazole] was run?
**A.** 5.78

**Q.** `COC(=O)c1cc(-c2c[nH]c3ccccc23)[nH]n1` [SMR000079439] was tested. Which pIC50 did it give?
**A.** 5.93

**Q.** `O=C(Cn1c(-c2ccccc2)noc1=O)Nc1ccc(N2CCCCCC2)cc1` [MLS000027331] was tested. Which pIC50 did it give?
**A.** < 4.00

**Q.** How did the pIC50 turn out when `COC(=O)c1cc(-c2ccccc2)n[nH]1` [methyl 3-phenyl-1H-pyrazole-5-carboxylate] was run?
**A.** 5.91

**Q.** With `CC1(C)CC(=O)c2c(n[nH]c2Cc2ccccc2)C1` as the compound, how does the pIC50 read?
**A.** 5.74

**Q.** With `CCOC(=O)c1sc(NC(=O)CSc2nnc(-c3ccccc3)[nH]2)c(C#N)c1C` [ethyl 4-cyano-3-methyl-5-[[2-[(5-phenyl-1H-1,2,4-triazol-3-yl)sulfanyl]acetyl]amino]thiophene-2-carboxylate] as the compound, how does the pIC50 read?
**A.** 5.27

**Q.** With `CCCSc1nnc(NC(C)=O)[nH]1` [MLS000114796] as the compound, how does the pIC50 read?
**A.** 6.09

**Q.** `CC(=N)C(C#N)C(=O)CSc1nnc(-c2ccccc2Br)[nH]1` (configuration not stated) was tested. Which pIC50 did it give?
**A.** 5.76

**Q.** `O=C(O)c1cc(-c2ccc(Cl)cc2)n[nH]1` was tested. Which pIC50 did it give?
**A.** 5.57

**Q.** With `OCc1nnn(-c2cccc(C(F)(F)F)c2)c1CO` [MLS000090420] as the compound, how does the pIC50 read?
**A.** < 4.00

**Q.** With `Cc1cc(NC(=O)c2noc3c2CCc2ccccc2-3)n(-c2ccccc2)n1` [MLS000116423] as the compound, how does the pIC50 read?
**A.** < 4.00

**Q.** With `CCc1ccc(OCc2nc(-c3ccccn3)no2)c(Br)c1` [2-{5-[(2-bromo-4-ethylphenoxy)methyl]-1,2,4-oxadiazol-3-yl}pyridine] as the compound, how does the pIC50 read?
**A.** < 4.00

**Q.** How did the pIC50 turn out when `COc1ccc(-c2[nH]nc3oc(=O)cc(C)c23)cc1` was run?
**A.** 5.87

**Q.** How did the pIC50 turn out when `COC(=O)c1cc(-c2ccc(Br)cc2)n[nH]1` was run?
**A.** 5.94

**Q.** How did the pIC50 turn out when `Cc1ccc(-n2c(Cc3cccn3C)nnc2SCC(=O)Nc2nnc(C)s2)cc1` [2-({4-(4-methylphenyl)-5-[(1-methyl-1H-pyrrol-2-yl)methyl]-4H-1,2,4-triazol-3-yl}thio)-N-(5-methyl-1,3,4-thiadiazol-2-yl)acetamide] was run?
**A.** < 4.00

**Q.** `Cn1ncc2c1ncn1nc(CCc3ccccc3)nc21` [MLS000040759] was tested. Which pIC50 did it give?
**A.** 4.80

**Q.** How did the pIC50 turn out when `CCCCNC(=O)c1ccc2nc(-c3ccco3)c(-c3ccco3)nc2c1` [MLS000119995] was run?
**A.** < 4.00

**Q.** How did the pIC50 turn out when `CCOC(=O)N1CCN(C(=O)c2ccc(CS(=O)(=O)c3ccccc3OC)o2)CC1` [4-[5-[(2-methoxyphenyl)sulfonylmethyl]-2-furoyl]piperazine-1-carboxylic acid ethyl ester] was run?
**A.** < 4.00

**Q.** With `c1ccc(-n2ncc3c2ncn2cnnc32)cc1` [MLS000048783] as the compound, how does the pIC50 read?
**A.** < 4.00

**Q.** With `Cc1cc(=O)oc2n[nH]c(-c3ccccc3)c12` [MLS-0013971.0001] as the compound, how does the pIC50 read?
**A.** 5.91

**Q.** `Cc1ccc(-n2ncc3c2ncn2c(C)nnc32)cc1C` [MLS000082333] was tested. Which pIC50 did it give?
**A.** 5.10

**Q.** With `c1ccc(-c2[nH]nc3ccccc23)cc1` as the compound, how does the pIC50 read?
**A.** 5.43

**Q.** How did the pIC50 turn out when `CC1(C)Cc2c(sc3nc4n(c(=N)c23)CCCCC4)CO1` [SMR000039131] was run?
**A.** 5.02

**Q.** How did the pIC50 turn out when `COc1ccc(CNC(=O)C(C)NC(=O)c2cc3ccccc3o2)cc1` (configuration not stated) [MLS000047147] was run?
**A.** < 4.00

**Q.** `Brc1ccc(-c2nnc3sc(CNCc4ccc5c(c4)OCO5)cn23)cc1` [1-(1,3-benzodioxol-5-yl)-N-[[3-(4-bromophenyl)-6-thiazolo[2,3-c][1,2,4]triazolyl]methyl]methanamine] was tested. Which pIC50 did it give?
**A.** < 4.00

**Q.** `Oc1c2c(c(O)n1-c1nnc(Cc3ccccc3)[nH]1)CC=CC2` [MLS000100008] was tested. Which pIC50 did it give?
**A.** 6.48
